Assay results published in patent US6110939A, “(Benzimidazolyl- and imidazopyridinyl) containing 1-(1,2-disubstituted piperidinyl) derivatives” (Janssen Pharmaceutica N.V., priority 1995, dated 2000).

The compounds below were run on substance P induced relaxation of the pig coronary arteries (assay: Antagonism of substance P induced relaxation of the pig coronary arteries). Settings: Sus scrofa, 0.5 h; test compound 1 × 10^-8; response to 10^-9 M substance P; 30 min incubation.
Format: cell-based
Method: Antagonism of substance P induced relaxation of the pig coronary arteries
Segments of coronary arteries taken from pigs (killed by injection of an overdose of sodium pentobarbital) were inverted and mounted for recording of isometric tension in organ baths (volume 20 ml) with the endothelium at the outside. The preparations were bathed in Krebs - Henseleit solution. The solution was kept at 37° C. and gassed with a mixture of O2 /CO2 (95/5). After stabilisation of the preparations, prostaglandin F2α (10^-5 M) was administered to induce a contraction. This was repeated until contractile responses became stable. Then prostaglandin F2α was again administered and substance P (3×10^-10 M and 10^-9 M cumulatively) was added. […] After washing away the agonists, a known concentration of a compound of formula (I) was added. After an incubation period of 30 minutes, prostaglandin F2α (10^-5 M) and the same concentrations of substance P as described above were again administered in the presence of the compound to be tested.

`Cc1cc(C)cc(C(=O)N2CC[C@@H](N3CCC(Nc4nc5ccccc5n4Cc4cccs4)CC3)C[C@@H]2Cc2ccccc2)c1` (relative stereo) [Compound 8] showed an inhibition at 0.01 µM of 14.7%.

Same assay, conditions: Sus scrofa, 0.5 h; test compound 3 × 10^-8; response to 10^-9 M substance P; 30 min incubation

Going from `O=C(c1cc(C(F)(F)F)cc(C(F)(F)F)c1)N1CC[C@@H](N2CCC(Sc3nc4ccccc4n3Cc3ccc(F)cc3)CC2)C[C@@H]1Cc1ccccc1` (relative stereo) [Compound 35] to `O=C(c1cc(C(F)(F)F)cc(C(F)(F)F)c1)N1CC[C@@H](N2CCC(Oc3nc4ccccc4n3Cc3ccc(F)cc3)CC2)C[C@@H]1Cc1ccccc1` (relative stereo) [Compound 25], the inhibition at 0.03 µM rises from 88.5% to 100%.

First: CCOCCn1c(NC2CCCN(C(=O)c3cc(C(F)(F)F)cc(C(F)(F)F)c3)C(Cc3ccccc3)C2)nc2ccccc21 (stereo not shown) [Compound 149]
Second: CCOCCn1c(NC2CCN([C@@H]3CCN(C(=O)c4cc(C(F)(F)F)cc(C(F)(F)F)c4)[C@@H](Cc4ccccc4)C3)CC2)nc2ccccc21 (relative stereo) [Compound 6, (±)-trans-1-[1,3-bis(trifluoromethyl)-benzoyl]-4-[4-[[1-(2-ethoxyethyl)-1H-benzimidazol-2-yl]amino]-1-piperidinyl]-2-(phenylmethyl)piperidine]
The inhibition at 0.03 µM of the first is lower: 12.7% for the first, 85.3% for the second.

First: Cc1ncc(Cn2c(NC3CCN([C@@H]4CCN(C(=O)c5cc(C(F)(F)F)cc(C(F)(F)F)c5)[C@@H](Cc5ccccc5)C4)CC3)nc3ccccc32)o1 (relative stereo) [Compound 16]
Second: Cc1ccc(Cn2c(NC3CCN([C@@H]4CCN(C(=O)c5cc(C(F)(F)F)cc(C(F)(F)F)c5)[C@H](Cc5ccccc5)C4)CC3)nc3ccccc32)o1 (relative stereo) [Compound 28]
The inhibition at 0.03 µM of the first is lower: 88.8% for the first, 100% for the second.

First: O=C(c1cc(C(F)(F)F)cc(C(F)(F)F)c1)N1CC[C@@H](N2CCC(Nc3nc4ccccc4n3Cc3ccc(CO)o3)CC2)C[C@@H]1Cc1ccccc1 (relative stereo) [Compound 43]
Second: O=C(c1cc(C(F)(F)F)cc(C(F)(F)F)c1)N1CC[C@@H](N2CCC(Nc3nc4ccccc4n3Cc3ccc(CO)o3)CC2)C[C@H]1Cc1ccccc1 (relative stereo) [Compound 44]
The inhibition at 0.03 µM of the first is lower: 85.2% for the first, 91.5% for the second.

Compared with `O=C(c1cc(C(F)(F)F)cc(C(F)(F)F)c1)N1CC[C@@H](N2CCC(Nc3nc4ccccc4n3Cc3ccc(F)cc3)CC2)C[C@@H]1Cc1ccccc1` (relative stereo) [Compound 27], `Cc1cc(C)cc(C(=O)N2CC[C@H](N3CCC(Nc4nc5ccccc5n4Cc4cccs4)CC3)C[C@@H]2Cc2ccccc2)c1` (relative stereo) [Compound 7] is lower in inhibition at 0.03 µM: 92.8% for the first, 54% for the second.

First: CCOCCn1c(NC2CCN([C@@H]3CCN(C(=O)c4cc(C)cc(C)c4)[C@@H](Cc4ccccc4)C3)CC2)nc2ccccc21 (relative stereo) [Compound 2]
Second: Cc1cc(C)cc(C(=O)N2CC[C@H](N3CCC(Nc4nc5ccccc5n4Cc4cscn4)CC3)C[C@@H]2Cc2ccccc2)c1 (relative stereo) [Compound 9]
The inhibition at 0.03 µM of the first is lower: 41.1% for the first, 78.1% for the second.

Same assay, conditions: Sus scrofa, 0.5 h; test compound 3 × 10^-9; response to 10^-9 M substance P; 30 min incubation

Compared with `Cc1ncc(Cn2c(OC3CCN([C@@H]4CCN(C(=O)c5cc(C(F)(F)F)cc(C(F)(F)F)c5)[C@@H](Cc5ccccc5)C4)CC3)nc3ccccc32)o1` (relative stereo) [Compound 37], `Cc1ccc(Cn2c(C(O)C3CCN([C@H]4CCN(C(=O)c5cc(C(F)(F)F)cc(C(F)(F)F)c5)[C@@H](Cc5ccccc5)C4)CC3)nc3ccccc32)o1` (stereo partly shown) [Compound 22] is higher in inhibition at 0.003 µM: 70.5% for the first, 89.4% for the second.

Going from `Cc1ccc(Cn2c(NC3CCN([C@H]4CCN(C(=O)c5cc(C(F)(F)F)cc(C(F)(F)F)c5)[C@@H](Cc5ccccc5)C4)CC3)nc3cccnc32)o1` (relative stereo) [Compound 19] to `Cc1ccc(Cn2c(CC3CCN([C@@H]4CCN(C(=O)c5cc(C(F)(F)F)cc(C(F)(F)F)c5)[C@@H](Cc5ccccc5)C4)CC3)nc3ccccc32)o1` (relative stereo) [Compound 41], the inhibition at 0.003 µM rises from 79.5% to 82.6%.

Compared with `CCOCCn1c(N[C@@H]2CCN(C(=O)c3cc(C(F)(F)F)ccc3C(F)(F)F)[C@H](Cc3ccc(Cl)cc3)C2)nc2ccccc21` (relative stereo) [Compound 145], `Cc1ccc(Cn2c(C(O)C3CCN(C4CCN(C(=O)c5cc(C(F)(F)F)cc(C(F)(F)F)c5)C(Cc5ccccc5)C4)CC3)nc3ccccc32)o1` (stereo not shown) [Compound 23] is higher in inhibition at 0.003 µM: 92.2% for the first, 94.3% for the second.

Going from `Cc1ncc(Cn2c(N[C@@H]3CCN(C(=O)c4ccco4)[C@@H](Cc4ccccc4)C3)nc3ccccc32)o1` (relative stereo) [Compound 46] to `Cc1cc(C)cc(C(=O)N2CC[C@@H](N3CCC(Nc4nc5ccccc5n4Cc4ccc(C)o4)CC3)C[C@@H]2Cc2ccccc2)c1` (relative stereo) [Compound 32], the inhibition at 0.003 µM rises from 17.6% to 20.1%.

Same assay, conditions: test compound 3 × 10^-8; response to 10^-9 M substance P; 30 min incubation

In the case of `CCOCCn1c(NC2CCN(C3CCN(C(=O)c4cc(C(F)(F)F)cc(C(F)(F)F)c4)C(Cc4ccccc4)C3)C(Cc3ccccc3)C2)nc2ccccc21` (stereo not drawn) [Compound 14, 2α,4β-trans-1-[3,5-bis(trifluoromethyl)benzoyl]-4-[4-[[1-(2-ethoxyethyl)-1H-benzimidazol-2-yl]amino]-2-(phenylmethyl)-1-piperidinyl]-2-(phenylmethyl)piperidine], the “% inhibition” value is reported as 53.3%.
